Data reported in ChEMBL document CHEMBL5154747, “Discovery of new carbonic anhydrase IX inhibitors as anticancer agents by toning the hydrophobic and hydrophilic rims of the active site to encounter the dual-tail approach” (Eur J Med Chem, 2022).
pKi: −log10 of the molar value.

How the values were obtained:
HCC 2998 = assay: Anticancer activity against human HCC 2998 cells assessed as cell growth inhibition at 10 uM incubated for 48 hrs by SRB assay relative to control; format: functional; details: read-out: GI
Hs-578T = assay: Anticancer activity against human Hs-578T cells assessed as cell growth inhibition at 10 uM incubated for 48 hrs by SRB assay relative to control; format: functional; details: read-out: GI
CAKI-1 = assay: Anticancer activity against human CAKI-1 cells assessed as cell growth inhibition at 10 uM incubated for 48 hrs by SRB assay relative to control; format: functional; details: read-out: GI
MDA-MB-435 = assay: Anticancer activity against human MDA-MB-435 cells assessed as cell growth inhibition at 10 uM incubated for 48 hrs by SRB assay relative to control; format: functional; details: read-out: GI
HL-60(TB) = assay: Anticancer activity against human HL-60(TB) cells assessed as cell growth inhibition at 10 uM incubated for 48 hrs by SRB assay relative to control; format: functional; details: read-out: GI
SF-295 = assay: Anticancer activity against human SF-295 cells assessed as cell growth inhibition at 10 uM incubated for 48 hrs by SRB assay relative to control; format: functional; details: read-out: GI
SN12C = assay: Anticancer activity against human SN12C cells assessed as cell growth inhibition at 10 uM incubated for 48 hrs by SRB assay relative to control; format: functional; details: read-out: GI
SK-MEL-2 = assay: Anticancer activity against human SK-MEL-2 cells assessed as cell growth inhibition at 10 uM incubated for 48 hrs by SRB assay relative to control; format: functional; details: read-out: GI
OVCAR-4 = assay: Anticancer activity against human OVCAR-4 cells assessed as cell growth inhibition at 10 uM incubated for 48 hrs by SRB assay relative to control; format: functional; details: read-out: GI
HCT-116 = assay: Anticancer activity against human HCT-116 cells assessed as cell growth inhibition at 10 uM incubated for 48 hrs by SRB assay relative to control; format: functional; details: read-out: GI
SR = assay: Anticancer activity against human SR cells assessed as cell growth inhibition at 10 uM incubated for 48 hrs by SRB assay relative to control; format: functional; details: read-out: GI
SNB-75 = assay: Anticancer activity against human SNB-75 cells assessed as cell growth inhibition at 10 uM incubated for 48 hrs by SRB assay relative to control; format: functional; details: read-out: GI
SNB-19 = assay: Anticancer activity against human SNB-19 cells assessed as cell growth inhibition at 10 uM incubated for 48 hrs by SRB assay relative to control; format: functional; details: read-out: GI
MDA-MB-231 = assay: Anticancer activity against human MDA-MB-231 cells assessed as cell growth inhibition at 10 uM incubated for 48 hrs by SRB assay relative to control; format: functional; details: read-out: GI
Malme-3M = assay: Anticancer activity against human Malme-3M cells assessed as cell growth inhibition at 10 uM incubated for 48 hrs by SRB assay relative to control; format: functional; details: read-out: GI
BT-549 = assay: Anticancer activity against human BT-549 cells assessed as cell growth inhibition at 10 uM incubated for 48 hrs by SRB assay relative to control; format: functional; details: read-out: GI
SK-OV-3 = assay: Anticancer activity against human SK-OV-3 cells assessed as cell growth inhibition at 10 uM incubated for 48 hrs by SRB assay relative to control; format: functional; details: read-out: GI
IGROV-1 = assay: Anticancer activity against human IGROV-1 cells assessed as cell growth inhibition at 10 uM incubated for 48 hrs by SRB assay relative to control; format: functional; details: read-out: GI
K562 = assay: Anticancer activity against human K562 cells assessed as cell growth inhibition at 10 uM incubated for 48 hrs by SRB assay relative to control; format: functional; details: read-out: GI
HT-29 = assay: Anticancer activity against human HT-29 cells assessed as cell growth inhibition at 10 uM incubated for 48 hrs by SRB assay relative to control; format: functional; details: read-out: GI
HOP-62 = assay: Anticancer activity against human HOP-62 cells assessed as cell growth inhibition at 10 uM incubated for 48 hrs by SRB assay relative to control; format: functional; details: read-out: GI
MDA-MB-468 = assay: Anticancer activity against human MDA-MB-468 cells assessed as cell growth inhibition at 10 uM incubated for 48 hrs by SRB assay relative to control; format: functional; details: read-out: GI
T47D = assay: Anticancer activity against human T47D cells assessed as cell growth inhibition at 10 uM incubated for 48 hrs by SRB assay relative to control; format: functional; details: read-out: GI
NCI-H522 = assay: Anticancer activity against human NCI-H522 cells assessed as cell growth inhibition at 10 uM incubated for 48 hrs by SRB assay relative to control; format: functional; details: read-out: GI
ACHN = assay: Anticancer activity against human ACHN cells assessed as cell growth inhibition at 10 uM incubated for 48 hrs by SRB assay relative to control; format: functional; details: read-out: GI
NCI-H23 = assay: Anticancer activity against human NCI-H23 cells assessed as cell growth inhibition at 10 uM incubated for 48 hrs by SRB assay relative to control; format: functional; details: read-out: GI
HOP-92 = assay: Anticancer activity against human HOP-92 cells assessed as cell growth inhibition at 10 uM incubated for 48 hrs by SRB assay relative to control; format: functional; details: read-out: GI
UACC-257 = assay: Anticancer activity against human UACC-257 cells assessed as cell growth inhibition at 10 uM incubated for 48 hrs by SRB assay relative to control; format: functional; details: read-out: GI
OVCAR-3 = assay: Anticancer activity against human OVCAR-3 cells assessed as cell growth inhibition at 10 uM incubated for 48 hrs by SRB assay relative to control; format: functional; details: read-out: GI
SK-MEL-28 = assay: Anticancer activity against human SK-MEL-28 cells assessed as cell growth inhibition at 10 uM incubated for 48 hrs by SRB assay relative to control; format: functional; details: read-out: GI
Carbonic anhydrase 9 = Carbonic anhydrase 9 (Homo sapiens, UniProt Q16790); assay: Inhibition of recombinant human CA 9 preincubated for 15 mins by phenol red dye based stopped flow CO2 hydration assay
SF-539 = assay: Anticancer activity against human SF-539 cells assessed as cell growth inhibition at 10 uM incubated for 48 hrs by SRB assay relative to control; format: functional; details: read-out: GI
OVCAR-5 = assay: Anticancer activity against human OVCAR-5 cells assessed as cell growth inhibition at 10 uM incubated for 48 hrs by SRB assay relative to control; format: functional; details: read-out: GI
KM12 = assay: Anticancer activity against human KM12 cells assessed as cell growth inhibition at 10 uM incubated for 48 hrs by SRB assay relative to control; format: functional; details: read-out: GI
RXF 393 = assay: Anticancer activity against human RXF 393 cells assessed as cell growth inhibition at 10 uM incubated for 48 hrs by SRB assay relative to control; format: functional; details: read-out: GI
SK-MEL-5 = assay: Anticancer activity against human SK-MEL-5 cells assessed as cell growth inhibition at 10 uM incubated for 48 hrs by SRB assay relative to control; format: functional; details: read-out: GI
NCI-H460 = assay: Anticancer activity against human NCI-H460 cells assessed as cell growth inhibition at 10 uM incubated for 48 hrs by SRB assay relative to control; format: functional; details: read-out: GI
MOLT-4 = assay: Anticancer activity against human MOLT-4 cells assessed as cell growth inhibition at 10 uM incubated for 48 hrs by SRB assay relative to control; format: functional; details: read-out: GI
TK-10 = assay: Anticancer activity against human TK-10 cells assessed as cell growth inhibition at 10 uM incubated for 48 hrs by SRB assay relative to control; format: functional; details: read-out: GI

`NS(=O)(=O)c1ccc(Nc2nc(N/N=C/c3c[nH]c4ccccc34)nc(Nc3ccccc3)n2)cc1` showed an inhibition of growth at 10 µM (HCC 2998) of 47%, an inhibition of growth at 10 µM (Hs-578T) of 57% and an inhibition of growth at 10 µM (CAKI-1) of 46%. It also gave an inhibition of growth at 10 µM (MDA-MB-435) of 68%, an inhibition of growth at 10 µM (HL-60(TB)) of 65% and an inhibition of growth at 10 µM (SF-295) of 68%. The inhibition of growth at 10 µM (SN12C) was 59%, the inhibition of growth at 10 µM (SK-MEL-2) was 32% and the inhibition of growth at 10 µM (OVCAR-4) was 40%. The inhibition of growth at 10 µM (HCT-116) was 84%, the inhibition of growth at 10 µM (SR) was 87% and the inhibition of growth at 10 µM (SNB-75) was 29%. It also gave an inhibition of growth at 10 µM (SNB-19) of 43%, an inhibition of growth at 10 µM (MDA-MB-231) of 51% and an inhibition of growth at 10 µM (Malme-3M) of 53%. The inhibition of growth at 10 µM (BT-549) was 51%, the inhibition of growth at 10 µM (SK-OV-3) was < 10% and the inhibition of growth at 10 µM (IGROV-1) was 66%. For the same compound, the inhibition of growth at 10 µM (K562) was 77%, the inhibition of growth at 10 µM (HT-29) was 68% and the inhibition of growth at 10 µM (HOP-62) was 36%. The inhibition of growth at 10 µM (MDA-MB-468) was 47%, the inhibition of growth at 10 µM (T47D) was 64% and the inhibition of growth at 10 µM (NCI-H522) was 68%. The inhibition of growth at 10 µM (ACHN) was 18%, the inhibition of growth at 10 µM (NCI-H23) was 52% and the inhibition of growth at 10 µM (HOP-92) was 38%. For the same compound, the inhibition of growth at 10 µM (UACC-257) was 36%, the inhibition of growth at 10 µM (OVCAR-3) was 73% and the inhibition of growth at 10 µM (SK-MEL-28) was 54%. It also gave a pKi (Carbonic anhydrase 9) of 7.59, an inhibition of growth at 10 µM (SF-539) of 52% and an inhibition of growth at 10 µM (OVCAR-5) of 12%. For the same compound, the inhibition of growth at 10 µM (KM12) was 72%, the inhibition of growth at 10 µM (RXF 393) was 125% and the inhibition of growth at 10 µM (SK-MEL-5) was 60%. For the same compound, the inhibition of growth at 10 µM (NCI-H460) was 58%, the inhibition of growth at 10 µM (MOLT-4) was 80% and the inhibition of growth at 10 µM (TK-10) was 20%.
Work on `NS(=O)(=O)c1ccc(Nc2nc(N/N=C/c3ccc(C(F)(F)F)cc3)nc(Nc3ccccc3)n2)cc1` yielded an inhibition of growth at 10 µM (HCC 2998) of 46%, an inhibition of growth at 10 µM (Hs-578T) of 91% and an inhibition of growth at 10 µM (CAKI-1) of 66%. It also gave an inhibition of growth at 10 µM (MDA-MB-435) of 80%, an inhibition of growth at 10 µM (HL-60(TB)) of 51% and an inhibition of growth at 10 µM (SF-295) of 95%. For the same compound, the inhibition of growth at 10 µM (SN12C) was 57%, the inhibition of growth at 10 µM (SK-MEL-2) was 71% and the inhibition of growth at 10 µM (OVCAR-4) was 59%. The inhibition of growth at 10 µM (HCT-116) was 90%, the inhibition of growth at 10 µM (SR) was 92% and the inhibition of growth at 10 µM (SNB-75) was 58%. It also gave an inhibition of growth at 10 µM (SNB-19) of 66%, an inhibition of growth at 10 µM (MDA-MB-231) of 73% and an inhibition of growth at 10 µM (Malme-3M) of 77%. The inhibition of growth at 10 µM (BT-549) was 51%, the inhibition of growth at 10 µM (SK-OV-3) was 44% and the inhibition of growth at 10 µM (IGROV-1) was 68%. For the same compound, the inhibition of growth at 10 µM (K562) was 82%, the inhibition of growth at 10 µM (HT-29) was 88% and the inhibition of growth at 10 µM (HOP-62) was 61%. For the same compound, the inhibition of growth at 10 µM (MDA-MB-468) was 65%, the inhibition of growth at 10 µM (T47D) was 68% and the inhibition of growth at 10 µM (NCI-H522) was 62%. The inhibition of growth at 10 µM (ACHN) was 60%, the inhibition of growth at 10 µM (NCI-H23) was 47% and the inhibition of growth at 10 µM (HOP-92) was 42%. For the same compound, the inhibition of growth at 10 µM (UACC-257) was 60%, the inhibition of growth at 10 µM (OVCAR-3) was 88% and the inhibition of growth at 10 µM (SK-MEL-28) was 72%. It also gave a pKi (Carbonic anhydrase 9) of 7.53, an inhibition of growth at 10 µM (SF-539) of 76% and an inhibition of growth at 10 µM (OVCAR-5) of 32%. The inhibition of growth at 10 µM (KM12) was 78%, the inhibition of growth at 10 µM (RXF 393) was 139% and the inhibition of growth at 10 µM (SK-MEL-5) was 65%. It also gave an inhibition of growth at 10 µM (NCI-H460) of 85%, an inhibition of growth at 10 µM (MOLT-4) of 90% and an inhibition of growth at 10 µM (TK-10) of 35%.
